Test results from the supplement of paper PMC10307832.

Columns and labels:
Assay in all cases: relative viability (nuclei count vs DMSO), 5 days (fraction); higher = more cells survive
17-AAG + Bortezomib = compound: C=CCNC1=C2C[C@@H](C)C[C@H](OC)[C@H](O)[C@@H](C)/C=C(\C)[C@H](OC(N)=O)[C@@H](OC)/C=C\C=C(/C)C(=O)NC(=CC1=O)C2=O [17-AAG] + CC(C)C[C@H](NC(=O)[C@H](Cc1ccccc1)NC(=O)c1cnccn1)B(O)O [Bortezomib] (partner 0.002 µM)
Procedure, shortened: (§1)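 Lung cancer cell lines, seeded in 1536-well plates, were treated the following day by pin tool with a single drug or with five library-drug doses (not always all listed) in √10 steps on top of a fixed anchor-drug dose. Cells were fixed and nuclei stained in one step after 5 days, and nuclei were counted. Relative viability is the nuclei count for treated wells divided by that for vehicle wells, reported as medians of duplicate plates.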

17-AAG + Luminespib = compound: C=CCNC1=C2C[C@@H](C)C[C@H](OC)[C@H](O)[C@@H](C)/C=C(\C)[C@H](OC(N)=O)[C@@H](OC)/C=C\C=C(/C)C(=O)NC(=CC1=O)C2=O [17-AAG] + CCNC(=O)c1noc(-c2cc(C(C)C)c(O)cc2O)c1-c1ccc(CN2CCOCC2)cc1 [Luminespib] (partner 0.01 µM)
Procedure, shortened: as §1

17-AAG + Dasatinib = compound: C=CCNC1=C2C[C@@H](C)C[C@H](OC)[C@H](O)[C@@H](C)/C=C(\C)[C@H](OC(N)=O)[C@@H](OC)/C=C\C=C(/C)C(=O)NC(=CC1=O)C2=O [17-AAG] + Cc1nc(Nc2ncc(C(=O)Nc3c(C)cccc3Cl)s2)cc(N2CCN(CCO)CC2)n1 [Dasatinib] (partner 0.075 µM)
Procedure, shortened: as §1

17-AAG + Palbociclib = compound: C=CCNC1=C2C[C@@H](C)C[C@H](OC)[C@H](O)[C@@H](C)/C=C(\C)[C@H](OC(N)=O)[C@@H](OC)/C=C\C=C(/C)C(=O)NC(=CC1=O)C2=O [17-AAG] + CC(=O)c1c(C)c2cnc(Nc3ccc(N4CCNCC4)cn3)nc2n(C2CCCC2)c1=O [Palbociclib] (partner 0.5 µM)
Procedure, shortened: as §1

Cell Line	relative viability (17-AAG + Bortezomib; first compound 0.00128 µM)	relative viability (17-AAG + Bortezomib; first compound 0.004048 µM)	relative viability (17-AAG + Bortezomib; first compound 0.0128 µM)	relative viability (17-AAG + Bortezomib; first compound 0.04048 µM)	relative viability (17-AAG + Bortezomib; first compound 0.128 µM)	relative viability (17-AAG + Luminespib; first compound 0.00128 µM)	relative viability (17-AAG + Luminespib; first compound 0.004048 µM)	relative viability (17-AAG + Luminespib; first compound 0.0128 µM)	relative viability (17-AAG + Luminespib; first compound 0.04048 µM)	relative viability (17-AAG + Luminespib; first compound 0.128 µM)	relative viability (17-AAG + Dasatinib; first compound 0.00128 µM)	relative viability (17-AAG + Dasatinib; first compound 0.004048 µM)	relative viability (17-AAG + Dasatinib; first compound 0.0128 µM)	relative viability (17-AAG + Dasatinib; first compound 0.04048 µM)	relative viability (17-AAG + Dasatinib; first compound 0.128 µM)	relative viability (17-AAG + Palbociclib; first compound 0.00128 µM)	relative viability (17-AAG + Palbociclib; first compound 0.004048 µM)	relative viability (17-AAG + Palbociclib; first compound 0.0128 µM)	relative viability (17-AAG + Palbociclib; first compound 0.04048 µM)	relative viability (17-AAG + Palbociclib; first compound 0.128 µM)
ABC-1	0.356	0.348	0.355	0.287	0.246	0.439	0.758	0.565	0.38	0.238	0.607	0.666	0.633	0.514	0.392	0.701	0.805	0.772	0.79	0.602
COR-L23	1.12	0.948	0.946	0.408	0.0841	0.648	0.504	0.46	0.11	0.0893	0.58	0.451	0.504	0.313	0.0763	0.278	0.338	0.336	0.198	0.0966
NCI-H727	0.795	0.766	0.784	0.322	0.229	0.607	0.245	0.331	0.316	0.284	0.378	0.376	0.326	0.231	0.214	0.661	0.706	0.588	0.482	0.425
NCI-H1993	1.04	1.25	0.609	0.454	0.369	0.919	0.625	0.516	0.273	0.423	0.548	0.607	0.344	0.387	0.344	0.704	0.622	0.813	0.373	0.296
NCI-H1437	0.606	0.389	0.176	0.123	0.0811	1.09	0.818	0.631	0.206	0.19	0.39	0.447	0.226	0.143	0.0854	0.3	0.351	0.259	0.198	0.167
NCI-H2347	–	0.995	0.871	0.447	0.371	0.62	0.278	0.274	0.299	0.374	0.308	0.248	0.216	0.176	0.118	0.45	0.446	0.397	0.317	0.322
201T	1.14	1.12	1.03	1.05	0.649	1.06	1.03	0.96	0.913	0.431	0.551	0.618	0.438	0.352	0.262	0.364	0.351	0.353	0.372	0.35
ChaGo-K-1	1.01	0.971	0.981	0.304	0.297	0.577	0.627	0.442	0.199	0.181	0.507	0.636	0.464	0.335	0.186	0.956	0.922	0.768	0.938	0.703
NCI-H1650	0.217	0.219	0.181	0.224	0.197	0.195	0.194	0.228	0.214	0.215	0.267	0.147	0.167	0.199	0.148	0.294	0.187	0.122	0.115	0.0961
LOU-NH91	0.483	0.512	0.394	0.401	0.381	0.345	0.239	0.282	0.3	0.291	0.535	0.421	0.359	0.295	0.273	0.537	0.51	0.463	0.349	0.394
HOP-62	0.701	0.725	0.748	0.46	0.117	0.928	0.806	0.919	0.36	0.136	0.685	0.683	0.485	0.175	0.1	0.465	0.451	0.403	0.268	0.273
NCI-H1915	0.846	1.02	0.85	0.884	0.118	0.682	0.659	0.548	0.418	0.0942	0.29	0.322	0.218	0.115	0.0794	0.533	0.503	0.471	0.253	0.0774
NCI-H322M	1.28	1.38	1.35	0.929	0.493	0.663	0.274	0.285	0.274	0.289	0.284	0.302	0.256	0.257	0.268	0.463	0.511	0.468	0.425	0.366
NCI-H1651	0.859	0.928	0.872	0.89	0.425	0.884	0.774	0.394	0.213	0.186	0.486	0.415	0.206	0.186	0.111	0.496	0.563	0.511	0.451	0.302
PC-14	0.915	0.822	0.808	0.12	0.101	0.146	0.111	0.143	0.162	0.128	0.179	0.0725	0.0375	0.0586	0.0476	0.471	0.241	0.0966	0.0821	0.0751
NCI-H647	0.912	0.761	0.0902	0.1	0.0699	0.128	0.122	0.098	0.109	0.0989	0.193	0.112	0.0468	0.107	0.0735	0.414	0.284	0.102	0.0567	0.0782
SW 1573	1.23	1.02	0.687	0.225	0.117	0.285	0.168	0.146	0.12	0.0673	0.699	0.461	0.135	0.136	0.0753	0.459	0.207	0.169	0.103	0.0788
NCI-H460	1.03	0.677	0.0227	0.0175	0.0128	0.0254	0.0275	0.0254	0.0299	0.023	0.518	0.462	0.0434	0.0267	0.019	0.31	0.117	0.016	0.0279	0.0159
NCI-H661	0.857	0.912	0.781	0.637	0.393	0.872	0.895	0.797	0.353	0.257	0.878	0.862	0.853	0.361	0.195	0.411	0.365	0.314	0.353	0.254
NCI-H1792	0.912	0.807	0.839	0.802	0.137	0.351	0.418	0.255	0.268	0.213	0.761	0.75	0.611	0.493	0.31	0.592	0.635	0.542	0.459	0.278
NCI-H1355	1.21	1.11	1.28	0.26	0.144	0.649	0.685	0.457	0.337	0.18	0.708	0.725	0.327	0.325	0.156	0.414	0.386	0.385	0.302	0.157
UMC-11	0.667	0.616	0.629	0.227	0.12	0.973	0.94	0.552	0.254	0.196	0.464	0.455	0.376	0.232	0.162	0.353	0.371	0.3	0.249	0.292
NCI-H2405	1.04	1.03	1	0.675	0.217	0.542	0.335	0.256	0.239	0.184	0.195	0.173	0.167	0.128	0.149	0.541	0.525	0.364	0.219	0.174
LCLC-97TM1	0.431	0.614	0.249	0.125	0.0923	0.826	0.785	0.707	0.58	0.195	0.796	0.813	0.777	0.224	0.159	0.264	0.213	0.199	0.251	0.209
EMC-BAC-2	1.15	1.11	1.13	1.01	0.209	1.14	1.06	0.565	0.268	0.248	0.365	0.411	0.28	0.258	0.169	0.544	0.525	0.521	0.462	0.4
NCI-H1975	0.445	0.34	0.149	0.145	0.119	0.198	0.175	0.14	0.176	0.139	0.315	0.247	0.121	0.104	0.0938	0.547	0.526	0.22	0.106	0.104
